Results on 24 compounds are retold here after ChEMBL document CHEMBL1201862, “PubChem BioAssay data set” (2004).

One data set has as its target T1, Estrogen receptor (Homo sapiens, UniProt P03372).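 Note: potency for inhibiting coactivator peptide recruitment to the receptor.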
T1 sequence (P03372 whole entry): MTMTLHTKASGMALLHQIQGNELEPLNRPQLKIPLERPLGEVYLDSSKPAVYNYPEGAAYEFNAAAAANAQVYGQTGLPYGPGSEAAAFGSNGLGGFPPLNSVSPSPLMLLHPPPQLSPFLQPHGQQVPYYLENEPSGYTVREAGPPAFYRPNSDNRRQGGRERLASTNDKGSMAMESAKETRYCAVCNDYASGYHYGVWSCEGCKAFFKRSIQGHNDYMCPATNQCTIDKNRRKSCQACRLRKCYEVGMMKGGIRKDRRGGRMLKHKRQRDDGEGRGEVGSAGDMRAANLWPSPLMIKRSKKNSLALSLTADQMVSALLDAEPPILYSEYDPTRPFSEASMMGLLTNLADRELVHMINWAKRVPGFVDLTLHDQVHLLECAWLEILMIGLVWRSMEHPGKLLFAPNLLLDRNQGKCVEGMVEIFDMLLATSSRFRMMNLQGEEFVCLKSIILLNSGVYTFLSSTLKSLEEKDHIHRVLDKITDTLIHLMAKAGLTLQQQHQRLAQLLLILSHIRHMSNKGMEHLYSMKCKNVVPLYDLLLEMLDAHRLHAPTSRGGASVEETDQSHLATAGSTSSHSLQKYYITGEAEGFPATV

Data set [1] can be described thus: cytotoxicity in HEK-293T cells, dose response, cytotoxicity control for BCR NF-kB inhibitor project, luminescence, B-cell screen hits (AID 489021).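 Note: HEK-293T cells carrying an NF-kB luciferase reporter; cells exposed to compound for about 14 hours before viability readout.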 In kind it is functional, cell-based.
In another data set the target is Genome polyprotein (dengue virus type 2, UniProt P29990). Kind of data set: Dengue-2 NS5 methyltransferase inhibitors, primary screen, biochemical, confirmation dose response (AID 588689). In kind it is functional.
Chain of Genome polyprotein (P29990 2492-3391 limits assumed): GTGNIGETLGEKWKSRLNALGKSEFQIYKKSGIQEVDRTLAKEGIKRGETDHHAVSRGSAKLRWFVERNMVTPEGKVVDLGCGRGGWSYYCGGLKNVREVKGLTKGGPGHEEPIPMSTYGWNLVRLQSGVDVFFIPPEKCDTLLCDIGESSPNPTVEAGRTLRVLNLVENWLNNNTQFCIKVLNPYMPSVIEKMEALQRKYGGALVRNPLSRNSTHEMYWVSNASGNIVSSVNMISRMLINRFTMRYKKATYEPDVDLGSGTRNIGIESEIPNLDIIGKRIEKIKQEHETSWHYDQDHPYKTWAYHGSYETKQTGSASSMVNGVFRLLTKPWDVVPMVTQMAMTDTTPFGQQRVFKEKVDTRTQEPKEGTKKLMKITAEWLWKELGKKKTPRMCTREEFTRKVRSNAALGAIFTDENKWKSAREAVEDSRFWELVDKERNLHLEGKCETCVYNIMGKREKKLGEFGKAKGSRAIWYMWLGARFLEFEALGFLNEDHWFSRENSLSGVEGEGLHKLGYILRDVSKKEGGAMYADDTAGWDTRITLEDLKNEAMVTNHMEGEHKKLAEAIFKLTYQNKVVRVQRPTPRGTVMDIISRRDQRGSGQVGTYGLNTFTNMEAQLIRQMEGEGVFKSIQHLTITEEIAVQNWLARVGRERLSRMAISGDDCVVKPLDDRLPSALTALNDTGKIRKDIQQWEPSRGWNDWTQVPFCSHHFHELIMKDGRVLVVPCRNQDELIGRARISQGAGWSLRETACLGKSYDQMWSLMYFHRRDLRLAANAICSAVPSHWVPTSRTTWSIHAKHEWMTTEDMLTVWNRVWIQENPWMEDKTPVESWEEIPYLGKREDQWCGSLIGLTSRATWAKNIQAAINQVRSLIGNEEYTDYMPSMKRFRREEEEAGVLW
The target of the next data set is Cytochrome P450 2C19 (Homo sapiens, UniProt P33261). Kind of data set: Cytochrome panel assay with activity outcomes. Panel member name: p450-cyp2c19 Compounds with AC50 equal or less than 10 uM are considered active. In kind it is functional. Particulars: read-out: AC50.
Chain of Cytochrome P450 2C19 (P33261 whole entry): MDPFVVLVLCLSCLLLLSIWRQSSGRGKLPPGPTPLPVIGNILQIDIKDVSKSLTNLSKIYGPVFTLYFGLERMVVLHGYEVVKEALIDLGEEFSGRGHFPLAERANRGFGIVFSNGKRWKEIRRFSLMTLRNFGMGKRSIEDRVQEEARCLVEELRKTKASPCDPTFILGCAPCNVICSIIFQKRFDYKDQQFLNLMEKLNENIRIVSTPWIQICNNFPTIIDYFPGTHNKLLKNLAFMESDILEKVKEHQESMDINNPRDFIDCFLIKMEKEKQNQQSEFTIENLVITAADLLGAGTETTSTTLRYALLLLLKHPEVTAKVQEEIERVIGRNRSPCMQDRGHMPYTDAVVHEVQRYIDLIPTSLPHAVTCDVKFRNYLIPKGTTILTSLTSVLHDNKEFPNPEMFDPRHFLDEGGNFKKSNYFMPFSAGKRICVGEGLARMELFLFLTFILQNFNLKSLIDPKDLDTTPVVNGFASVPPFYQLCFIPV
The target in data set [2] is Voltage-dependent T-type calcium channel subunit alpha-1H (Homo sapiens, UniProt O95180). In kind it is functional.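 Note: channel activity triggered by adding a high calcium stimulation buffer.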
The next data set has as its target Cytochrome P450 2C9 (Homo sapiens, UniProt P11712).
The target of data set [3] is T2, Endoribonuclease toxin MazF (Escherichia coli K-12, UniProt P0AE70).
T2 sequence (P0AE70 whole entry): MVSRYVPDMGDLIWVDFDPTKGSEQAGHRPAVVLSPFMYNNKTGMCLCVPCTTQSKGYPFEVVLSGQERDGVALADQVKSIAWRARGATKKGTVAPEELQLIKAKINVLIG
Nature of the data set: MazF toxin RNase activators, dose response, biochemical, fluorescence, single-stranded RNA substrate, uHTS hits (AID 588481). Format: functional.

For data set [4], the target named is T2, Endoribonuclease toxin MazF. Kind of data set: fluorescent RNA oligo signal without MazF, dose response, counter-screen for MazEF activator project, biochemical, fluorescence, single-stranded RNase substrate (AID 588502). In kind it is functional. (The purpose of a counterscreen is to sort out artefacts and off-target activity.)
The target of another data set is T3, Cytochrome P450 1A2 (Homo sapiens, UniProt P05177).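 Note: PubChem cytochrome P450 panel assay, CYP1A2 panel member.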
T3 sequence (P05177 whole entry): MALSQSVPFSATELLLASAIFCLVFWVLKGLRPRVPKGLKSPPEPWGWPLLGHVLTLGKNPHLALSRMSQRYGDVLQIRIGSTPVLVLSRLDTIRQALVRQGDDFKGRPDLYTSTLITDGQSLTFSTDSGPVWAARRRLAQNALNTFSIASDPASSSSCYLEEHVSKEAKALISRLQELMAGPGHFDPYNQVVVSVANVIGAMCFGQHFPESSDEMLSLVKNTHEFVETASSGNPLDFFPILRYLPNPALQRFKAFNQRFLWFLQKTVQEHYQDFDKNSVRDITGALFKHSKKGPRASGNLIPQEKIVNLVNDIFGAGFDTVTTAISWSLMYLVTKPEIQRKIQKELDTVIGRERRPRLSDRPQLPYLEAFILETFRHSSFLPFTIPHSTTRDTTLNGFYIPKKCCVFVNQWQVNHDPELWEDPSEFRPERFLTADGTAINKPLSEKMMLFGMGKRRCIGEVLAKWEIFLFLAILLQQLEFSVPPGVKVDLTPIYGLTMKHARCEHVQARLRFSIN

The target in data set [5] is DNA dC->dU-editing enzyme APOBEC-3G (Homo sapiens, UniProt Q9HC16). Nature of the data set: Dose Response confirmation of small molecule APOBEC3G DNA Deaminase Inhibitors via a fluorescence-based single-stranded DNA deaminase assay. [Related pubchem assays (depositor defined):AID493012, AID493028]. In kind it is functional.
Chain of DNA dC->dU-editing enzyme APOBEC-3G (Q9HC16 whole entry): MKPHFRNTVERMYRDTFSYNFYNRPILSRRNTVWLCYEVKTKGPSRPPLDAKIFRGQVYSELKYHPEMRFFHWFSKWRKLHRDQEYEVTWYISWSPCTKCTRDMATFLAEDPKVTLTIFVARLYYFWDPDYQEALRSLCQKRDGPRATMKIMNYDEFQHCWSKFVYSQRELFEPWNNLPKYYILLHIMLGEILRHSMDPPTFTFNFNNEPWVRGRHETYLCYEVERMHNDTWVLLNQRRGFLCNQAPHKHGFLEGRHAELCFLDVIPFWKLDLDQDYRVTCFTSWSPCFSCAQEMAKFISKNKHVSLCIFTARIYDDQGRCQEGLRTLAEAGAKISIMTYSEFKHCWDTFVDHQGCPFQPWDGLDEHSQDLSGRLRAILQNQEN
Data set [6] has as its system BJ. Nature of the data set: cells. Format: functional, cell-based. The settings on record: Homo sapiens.
Data set [7] relates to BJ. Kind of data set: cytotoxicity toward BJ-TERT fibroblasts, dose response, cell-based, RAS-independent, luminescence (AID 1933). Format: functional. Particulars: Homo sapiens.
In data set [8] the target is 26S proteasome non-ATPase regulatory subunit 14 (Homo sapiens, UniProt O00487). Kind of data set: inhibition of proteasome subunit RPN11 – biochemical, fluorescence polarization, uHTS hits, confirmation (AID 602368). In kind it is functional. In general terms: Fluorescence polarisation rises when a labelled molecule tumbles more slowly, as on binding a larger partner.
Chain of 26S proteasome non-ATPase regulatory subunit 14 (O00487 whole entry): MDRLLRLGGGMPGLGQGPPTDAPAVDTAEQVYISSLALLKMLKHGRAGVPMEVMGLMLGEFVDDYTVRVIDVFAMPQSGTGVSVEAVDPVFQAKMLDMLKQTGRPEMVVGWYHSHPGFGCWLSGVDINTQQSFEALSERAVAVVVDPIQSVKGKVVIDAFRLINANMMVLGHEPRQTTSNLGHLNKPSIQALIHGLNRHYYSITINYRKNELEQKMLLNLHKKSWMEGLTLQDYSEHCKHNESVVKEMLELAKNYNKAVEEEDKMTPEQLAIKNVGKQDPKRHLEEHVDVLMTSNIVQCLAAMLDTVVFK

The target in data set [9] is 72 kDa type IV collagenase (Homo sapiens, UniProt P08253). Nature of the data set: Dose Response validation of uHTS RPN11 inhibitor hits using a MMP-2 Fluorescence assay. Format: functional.
Chain of 72 kDa type IV collagenase (P08253 whole entry): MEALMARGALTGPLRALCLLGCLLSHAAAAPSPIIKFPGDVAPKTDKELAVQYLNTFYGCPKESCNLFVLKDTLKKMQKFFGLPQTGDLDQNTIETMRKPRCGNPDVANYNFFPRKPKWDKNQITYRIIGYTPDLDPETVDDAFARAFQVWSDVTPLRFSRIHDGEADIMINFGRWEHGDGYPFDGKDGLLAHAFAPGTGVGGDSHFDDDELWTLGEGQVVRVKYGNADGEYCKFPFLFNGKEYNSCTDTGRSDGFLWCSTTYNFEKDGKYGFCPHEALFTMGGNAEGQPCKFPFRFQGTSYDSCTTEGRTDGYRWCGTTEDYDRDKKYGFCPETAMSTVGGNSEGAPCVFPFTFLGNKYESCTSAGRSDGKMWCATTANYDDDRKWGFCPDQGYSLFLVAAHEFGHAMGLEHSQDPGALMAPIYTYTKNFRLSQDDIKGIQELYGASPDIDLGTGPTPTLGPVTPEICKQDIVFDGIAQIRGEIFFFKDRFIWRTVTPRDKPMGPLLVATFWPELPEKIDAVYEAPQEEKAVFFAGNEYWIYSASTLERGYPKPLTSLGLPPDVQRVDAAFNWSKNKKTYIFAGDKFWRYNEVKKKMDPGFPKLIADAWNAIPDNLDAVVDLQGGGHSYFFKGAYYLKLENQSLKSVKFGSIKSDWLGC
In the next data set the target is Prothrombin (Bos taurus, UniProt P00735). Nature of the data set: thrombin inhibition, dose response, biochemical, fluorescence polarization, uHTS hits (AID 602369). In kind it is functional.
Data set [10] has as its target T4, Ubiquitin-conjugating enzyme E2 N (Homo sapiens, UniProt P61088).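 Note: Dose-response confirmation in a TR-FRET assay detecting UBC13-driven polyubiquitin chain formation, inhibition measured.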
T4 sequence (P61088 whole entry): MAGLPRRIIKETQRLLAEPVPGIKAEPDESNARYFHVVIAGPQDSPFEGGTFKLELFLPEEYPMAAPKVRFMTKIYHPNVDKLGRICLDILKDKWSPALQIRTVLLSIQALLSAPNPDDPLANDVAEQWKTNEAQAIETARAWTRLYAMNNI
In kind it is functional.

In another data set the target is T5, CAAX prenyl protease 2 (Saccharomyces cerevisiae S288c, UniProt Q03530).
T5 sequence (Q03530 whole entry): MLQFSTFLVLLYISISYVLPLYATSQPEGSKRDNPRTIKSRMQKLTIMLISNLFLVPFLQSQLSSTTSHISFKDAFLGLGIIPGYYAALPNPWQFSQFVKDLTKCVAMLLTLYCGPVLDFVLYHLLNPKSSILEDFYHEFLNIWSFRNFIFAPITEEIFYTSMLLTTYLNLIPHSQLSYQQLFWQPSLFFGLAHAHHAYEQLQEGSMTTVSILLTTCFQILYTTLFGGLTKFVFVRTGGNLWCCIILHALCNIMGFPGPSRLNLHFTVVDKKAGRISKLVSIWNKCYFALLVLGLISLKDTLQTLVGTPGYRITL
In kind it is biochemical.

The target in the next data set is Trypsin (Sus scrofa, UniProt P00761). Nature of the data set: porcine trypsin inhibitors, dose response, selectivity assay for Rce1 protease inhibitor project, biochemical, quenched peptide fluorescence, cherry-pick (AID 488789).
Chain of Trypsin (P00761 whole entry): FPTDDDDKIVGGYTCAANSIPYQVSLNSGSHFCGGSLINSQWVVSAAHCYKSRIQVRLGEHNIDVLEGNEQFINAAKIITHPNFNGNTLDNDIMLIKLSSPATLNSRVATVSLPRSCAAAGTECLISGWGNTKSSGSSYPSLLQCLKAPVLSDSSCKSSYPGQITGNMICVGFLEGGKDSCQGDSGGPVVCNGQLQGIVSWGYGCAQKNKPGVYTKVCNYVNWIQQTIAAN
Data set [11] is described as follows: THP-1 cell cytotoxicity, dose response, cytotoxicity control for non-replicating M. tuberculosis project (AID 489025). In kind it is functional.
In another data set the target is Large T antigen (Simian virus 40, UniProt P03070). In kind it is functional, Betapolyomavirus macacae.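 Note: Confirmatory-stage PubChem screen for compounds that inhibit SV40 T antigen.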
Chain of Large T antigen (P03070 whole entry): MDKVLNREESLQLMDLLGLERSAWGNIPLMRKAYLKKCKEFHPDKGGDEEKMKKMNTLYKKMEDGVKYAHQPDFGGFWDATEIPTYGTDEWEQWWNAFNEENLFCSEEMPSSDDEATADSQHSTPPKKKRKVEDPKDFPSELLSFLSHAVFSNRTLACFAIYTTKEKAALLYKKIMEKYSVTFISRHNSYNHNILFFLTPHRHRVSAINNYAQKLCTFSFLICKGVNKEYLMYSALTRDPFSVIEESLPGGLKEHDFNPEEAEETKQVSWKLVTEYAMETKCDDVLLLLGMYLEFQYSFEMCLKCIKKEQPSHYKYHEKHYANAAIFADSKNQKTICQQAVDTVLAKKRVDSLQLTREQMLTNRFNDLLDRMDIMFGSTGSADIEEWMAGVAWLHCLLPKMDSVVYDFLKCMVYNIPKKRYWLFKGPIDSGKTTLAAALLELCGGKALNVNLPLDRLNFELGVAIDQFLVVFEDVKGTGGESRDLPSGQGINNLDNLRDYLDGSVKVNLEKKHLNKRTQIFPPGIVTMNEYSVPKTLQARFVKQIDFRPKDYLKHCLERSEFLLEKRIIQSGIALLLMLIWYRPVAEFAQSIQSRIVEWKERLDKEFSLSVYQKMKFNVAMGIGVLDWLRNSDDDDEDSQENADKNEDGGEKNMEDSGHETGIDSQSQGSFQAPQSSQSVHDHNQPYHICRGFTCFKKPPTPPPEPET
The next data set addresses Cytochrome P450 2D6 (Homo sapiens, UniProt P10635).

Calls of active or inactive are those of the source.

Chain of Cytochrome P450 2C9 (P11712 whole entry): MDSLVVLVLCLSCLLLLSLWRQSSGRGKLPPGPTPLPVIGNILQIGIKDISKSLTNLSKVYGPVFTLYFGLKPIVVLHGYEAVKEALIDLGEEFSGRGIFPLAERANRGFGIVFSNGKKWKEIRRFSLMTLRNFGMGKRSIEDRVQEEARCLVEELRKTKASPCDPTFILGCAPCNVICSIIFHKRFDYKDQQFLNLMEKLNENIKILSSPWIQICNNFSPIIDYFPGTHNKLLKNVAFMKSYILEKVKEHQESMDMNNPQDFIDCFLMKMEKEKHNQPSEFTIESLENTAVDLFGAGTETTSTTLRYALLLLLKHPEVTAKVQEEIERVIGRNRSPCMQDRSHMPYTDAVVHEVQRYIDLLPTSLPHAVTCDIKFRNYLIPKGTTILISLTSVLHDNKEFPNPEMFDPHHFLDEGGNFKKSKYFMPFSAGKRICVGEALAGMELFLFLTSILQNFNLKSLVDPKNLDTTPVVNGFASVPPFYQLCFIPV
Chain of Cytochrome P450 2D6 (P10635 whole entry): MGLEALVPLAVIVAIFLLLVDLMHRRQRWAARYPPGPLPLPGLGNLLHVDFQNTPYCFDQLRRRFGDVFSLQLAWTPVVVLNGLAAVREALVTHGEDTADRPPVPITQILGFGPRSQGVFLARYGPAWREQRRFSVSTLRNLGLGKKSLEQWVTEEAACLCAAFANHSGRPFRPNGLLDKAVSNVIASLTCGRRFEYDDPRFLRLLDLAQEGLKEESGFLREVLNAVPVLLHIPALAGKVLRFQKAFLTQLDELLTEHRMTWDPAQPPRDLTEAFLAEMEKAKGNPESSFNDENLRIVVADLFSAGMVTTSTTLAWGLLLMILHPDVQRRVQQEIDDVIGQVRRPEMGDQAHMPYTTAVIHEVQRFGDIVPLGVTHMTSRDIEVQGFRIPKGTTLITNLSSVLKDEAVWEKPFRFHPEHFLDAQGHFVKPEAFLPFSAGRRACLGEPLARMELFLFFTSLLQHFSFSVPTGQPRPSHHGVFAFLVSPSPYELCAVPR

`COC(=O)c1ccc2c(=O)n(CCCCCC(=O)NCc3ccc4c(c3)OCO4)c(=O)[nH]c2c1`: at Estrogen receptor, the IC50 was 14.8 µM (active).

Take `Cc1c(CCO)c(O)oc2nnc(-c3ccccc3)c1-2`: in data set [1], the IC50 is > 80 µM (inactive).

Take `O=C1NN(c2ccccc2)C(=O)/C1=C\c1cccc(OC(=O)c2cccs2)c1`: the IC50 on Genome polyprotein is 21.2 µM (active).

Turning to `Cn1c(=O)cc(OCC(=O)N2CCC3(CC2)OCCO3)c2ccccc21`, the IC50 in [1] is > 80 µM (inactive).

For `CC(NC(=O)CCSc1nc(-c2ccc3c(c2)OCO3)cc(C(F)(F)F)n1)c1ccccc1` (centres undefined), the IC50 at Estrogen receptor is listed as > 50 µM (not active). On Cytochrome P450 2C19, the AC50 is 0.398 µM (inconclusive). Moreover, the 50% effective concentration (EC50) in [2] is 7.03 µM (active).

With `Brc1ccc2cccnc2c1`, the AC50 result was “inconclusive” at Cytochrome P450 2C9 and 0.316 µM (inconclusive) on Cytochrome P450 2C19.

`Cn1c(=O)n(C)c2cc(NC(=O)CSc3nnc(-c4ccccc4O)n3-c3ccccc3)ccc21`: the IC50 in data set [1] is > 80 µM (inactive).

As for `CCc1cccc(CC)c1NC(=O)COC(=O)/C(C#N)=C/c1ccc(OC)cc1`, the EC50 in [3] and in [4] was > 99 µM (inactive) throughout.

On to `Cc1ccc(/C=C2/C(=O)NC(=O)N(CC3CCCO3)C2=O)s1` (centres undefined), for which the IC50 at Genome polyprotein is > 100 µM (active).

On to `C=CCNc1nc(-c2cccc(OC)c2O)nc2ccccc12`, for which the IC50 against Estrogen receptor was > 50 µM (not active).

As for `CC1(C)CC2(CC(C)(C(=O)CSc3nc4ccccc4s3)OC2=O)C(=O)O1` (centres undefined), the AC50 entry at Cytochrome P450 2C9 is “inconclusive”; on Cytochrome P450 1A2, 28.2 µM (inconclusive); on Cytochrome P450 2C19 it was 8.91 µM (inconclusive).

In the case of `C#CCOc1c(Br)cc(/C=C2/C(=O)ON=C2C)cc1OC`, the IC50 on Genome polyprotein is > 100 µM (active).

With `O=C1NC(=O)N(C2CCCCC2)C(=O)/C1=C\C=C\Nc1ccccc1`, the EC50 in [3] is > 99 µM (inactive); in data set [4], 9.49 µM (active).

In the case of `O=C(O)c1ccc2c(c1)C(=O)N(c1ccc(/C=C/C(=O)c3ccccc3)cc1)C2=O`, the IC50 on Genome polyprotein is 56.7 µM (active).

For the compound `CCOc1ccc(C(S)=NC2CCCCC2)cc1OC`, the IC50 in data set [5] is 64.7 µM (active).

For the compound `CCOC(=O)c1c(NC(=O)Nc2ccc(C)cc2)sc2c1CCN(C)C2`, the EC50 in data set [3] and in [4] was > 99 µM (inactive) throughout.

Turning to `Cc1ccc(Nc2nc(N)nc(-c3oc4ccccc4c3C)n2)cc1`, the EC50 in the data set with BJ [6] was 0.228 µM (active); in the data set on BJ [7], < 0.12 µM (active).

As to `CC(C)n1ncc2c(C(=O)Nc3ccc(S(N)(=O)=O)cc3)cc(C3CC3)nc21`, the IC50 in data set [8] is 6.85 µM (active); in data set [9], > 100 µM (inactive); at Prothrombin it was 73.6 µM (active); in data set [10] it was > 20 µM (inactive).

As to `Cc1cc(OCC(=O)N2CCC(C(=O)O)CC2)c2c(C)cc(=O)oc2c1`, the AC50 is 15.6 µM (active) at CAAX prenyl protease 2 and 21.7 µM (active) on Trypsin.

For the compound `CC1(c2nnc(-c3cccc(Cl)c3)o2)CC(c2cccc(Cl)c2)=NO1` (centres undefined), the IC50 in [1] was > 80 µM (inactive).

In the case of `CC/C(=N/Nc1cccc(C)c1)c1cnnc(SC)n1`, the EC50 in data set [3] and in [4] was > 99 µM (inactive) in each case.

On to `Cc1ccc(CO/N=C\Cc2snc(Sc3ncc(C(F)(F)F)cc3Cl)c2C#N)cc1`, for which the IC50 is 14.6 µM (active) in data set [8], > 100 µM (inactive) in [9] and 54.2 µM (active) at Prothrombin.

Regarding `Cn1cccc1/C=N\NC(=O)C1COc2ccccc2O1` (centres undefined), the CC50 in data set [11] was > 40 µM (active).

With `N#C/C(=C\c1ccc(O)c(O)c1)C(=O)Nc1ccccc1`, the IC50 in data set [8] is 1.3 µM (active); in [9] it was > 100 µM (inactive); at Large T antigen, 13.1 µM (active); at Prothrombin it was 67.9 µM (active). Moreover, at Cytochrome P450 2D6, the AC50 was 39.8 µM (inconclusive).

Usually IC50 stands for the point on the concentration scale where inhibition reaches its midpoint. As usually defined, the AC50 is the concentration giving half of the maximal activity seen. Usually EC50 stands for the concentration that produces a half-maximal response. In general, CC50 refers to the concentration at which the toxic effect on the cells reaches its halfway point.
